± gives the expanded uncertainty stated by the source.

The conditions of the data set: Crystal; DSC.

Turning to `CC(C)(N)CO` [2-amino-2-methylpropan-1-ol], the Triple point temperature is reported as 295.75 ± 2 K.

Values taken from the NIST ThermoML archive (doi:10.1021/acs.jced.8b01220).
